Measurements reported in article PMC9967108 (Viruses, 2023).

Assays:
main protease = main protease (Severe acute respiratory syndrome coronavirus 2, UniProt P0DTD1); assay: Dissociation constant (KD) test by fluorescence titration; type: binding, SARS-CoV-2; details: inhibitor titration, intrinsic fluorescence, Scatchard plot
SARS-CoV-2 Mpro = SARS-CoV-2 Mpro (Severe acute respiratory syndrome coronavirus 2, UniProt P0DTD1); assay: Mpro protease activity assay (IC50 test, fluorogenic substrate)

Compound | Kd (main protease) [µM] | IC50 (SARS-CoV-2 Mpro) [µM]
Cc1ccc(CNC(=O)C2CC(n3cnnn3)CN2Cc2ccc(OCc3ccccc3)cc2)cc1 (stereo not drawn) [CB-25] | 10.8 ± 1.32 | 22.7
Cc1cc(CNC(=O)Nn2cnc3ccccc32)ccc1F [CP-1] | 5.08 ± 0.38 | 18.5
Cc1ccc(C2CC(c3cccs3)=NN2C(=O)CSc2nnc(CNC(=O)c3ccco3)n2-c2cccc(Cl)c2)cc1 (stereo not drawn) [LC24-20] | 20 ± 1.27 | 32.9
